The values below come from patent US20230322776A1, “NEW ARYL-PYRIDO-PYRIMIDIN-ONE DERIVATIVES” (Hoffmann-La Roche Inc., priority 2020, published 2023).

Structures are written as SMILES. pEC50, pIC50, pKd: −log10 of the molar value.

The target of assay [1] is BRAF V660E (Homo sapiens, UniProt P15056, V600E). Description: KD BRAF V660E (Table 1; no method described). The assay is classed as binding.
Assay [2] deals with A375 cells (V600E mutated BRAF), ERK phospho-T202/Y204. Kind of assay: HTRF assay for P-ERK determination in A375 cells (BRAF inhibition). Type of assay: cell-based. The note with it: Homo sapiens, A-375, 1 hour drug incubation, DMSO = 100%, 10 μM Dabrafenib = 0%, top concentration 10 μM, read-out: P-ERK_A375: IC50. An excerpt:
(§1) A375 is a cellular cancer model expressing V600E mutated BRAF and HCT116 a cellular cancer model expressing WT BRAF. First generation BRAF inhibitors such as e.g. dabrafenib induce a paradox effect on tumour cells in that they inhibit the growth of V600E mutated BRAF cells (such as e.g. A375), while they activate growth in WT BRAF cells (such as e.g. HCT 116). ERK 1,2 phosphorylation (terminal member of the phosphorylation cascade of the MAPK pathway) is hereafter reported as main readout for the activation status of the MAPK pathway. DMEM no-phenol red medium supplemented with L-glutamine was purchased from (Thermo Fisher Scientific). Fetal bovine serum (FBS) was purchased from VWR. Advanced ERK phospho-T202/Y204 kit—10,000 tests was purchased from Cisbio cat #64AERPEH. A375 (catalog #CRL-1619) and HCT116 (catalog #CCL-247) cells were originally obtained from American type Culture Collection (ATCC) and banked by the Roche repository. 384-Well microplates ultized were purchased from Greiner Bio-One, 384-well, (With Lid, HiBase, Low volume cat 784-080).
(§2) HTRF Assay for P-ERK Determination in A375 or HCT116 Cells
(§3) Prior to the assay, A375 and HCT116 cell lines are maintained in DMEM no-phenol red medium supplemented with 10% fetal bovine serum (FBS). Following compound treatment, P-ERK levels are determined by measuring FRET fluorescence signal induced by selective binding of two antibodies provided in the mentioned kit (Cisbio cat #64AERPEH) on ERK protein when phosphorylated at Thr202/Tyr204. Briefly, 8000 cells/well in 12 μl media/well are plated in the 384-well plate and left overnight in the incubator (at 37° C. with 5% CO2-humidified atmosphere), the following day the plate is treated in duplicate with test compounds, dabrafenib and PLX8394 (the latter two as controls) at the following final drug concentrations: 10 μM, 3 μM, 1 μM, 0.3 μM, 0.1 μM, 0.03 μM, 0.01 μM, 0.003 μM and 0.001 μM. All wells are subjected to DMSO normalization and drug incubation occurs for 1 hour. Then, 4 μl of a 4× lysis buffer supplied with the kit are added to the wells, the plate is then centrifuged for 30 second (3000 rpm) and incubated on a plate shaker for 1 h at rt.
(§4) At the end of the incubation 4 μl/well of advanced P-ERK antibody solution (prepared according to manufacturer's instruction) followed by 4 μl/well of criptate P-ERK antibody solution (prepared according to manufacturer's instruction) (Cisbio cat #64AERPEH) are added to test wells.
(§5) In order to allow proper data normalization, control wells non drug treated reported in the following table are always included in each plate (according to manufacturer's instruction):
(§6) The plate is then centrifuged at 3000 rpm for 30 seconds, sealed to prevent evaporation and incubated overnight in the dark at room temperature. The plate is then analyzed and fluorescence emission value collected through a Pherastast FSX (BMG Labtech) apparatus at […]. The obtained fluorescence values are processed according to the formula Ratio=[…]*10000 then the average of the ratio on the blank is subtracted to all values.
Data are normalized in the case of A375 cells (BRAF inhibition) considering the average of the ratio (blank subtracted) derived by DMSO only treated cells as 100% and by considering the average of the ratio (blank subtracted) derived by 10 μM Dabrafenib treated cells as 0%. Mean of the normalized points are fitted with sigmoidal curve and IC50 values are determined.
On the technique in general: Time-resolved FRET reads energy transfer from a long-lived donor to a nearby acceptor.

In assay [3] the target is BRAF (Homo sapiens, UniProt P15056). Kind of assay: KD BRAF (Table 1; no method described). The assay is classed as binding.
Assay [4] concerns HCT116 cells (WT BRAF), ERK phospho-T202/Y204. Kind of assay: HTRF assay for P-ERK determination in HCT116 cells (BRAF activation, paradox). Type of assay: cell-based. The following applies: for pEC50: Homo sapiens, HCT-116, HCT116 cells, 1 hour drug incubation, activation relative to maximum Dabrafenib-mediated activation (100%), top concentration 10 μM, read-out: P-ERK_HCT-116: EC50—50PCT; for Fold Selectivity HCT-116 EC50-50/ A375: ratio of P-ERK HCT-116 EC50-50PCT to P-ERK A375 IC50.
Description: as §1, §2, §3, §4, §5, §6
Data are normalized in the case of HCT116 cells (BRAF activation) considering the average of the ratio (blank subtracted) derived by DMSO only treated cells as 0% and by considering the average of the ratio (blank subtracted) derived by Dabrafenib treated cells at the concentration which provides the highest signal as 100%. Individual points are fitted with either sigmoidal or bell shape curves, the percentage of activation compared to maximum Dabrafenib-mediated activation is determined.

Sequence of BRAF V660E (P15056 2-766 V600E): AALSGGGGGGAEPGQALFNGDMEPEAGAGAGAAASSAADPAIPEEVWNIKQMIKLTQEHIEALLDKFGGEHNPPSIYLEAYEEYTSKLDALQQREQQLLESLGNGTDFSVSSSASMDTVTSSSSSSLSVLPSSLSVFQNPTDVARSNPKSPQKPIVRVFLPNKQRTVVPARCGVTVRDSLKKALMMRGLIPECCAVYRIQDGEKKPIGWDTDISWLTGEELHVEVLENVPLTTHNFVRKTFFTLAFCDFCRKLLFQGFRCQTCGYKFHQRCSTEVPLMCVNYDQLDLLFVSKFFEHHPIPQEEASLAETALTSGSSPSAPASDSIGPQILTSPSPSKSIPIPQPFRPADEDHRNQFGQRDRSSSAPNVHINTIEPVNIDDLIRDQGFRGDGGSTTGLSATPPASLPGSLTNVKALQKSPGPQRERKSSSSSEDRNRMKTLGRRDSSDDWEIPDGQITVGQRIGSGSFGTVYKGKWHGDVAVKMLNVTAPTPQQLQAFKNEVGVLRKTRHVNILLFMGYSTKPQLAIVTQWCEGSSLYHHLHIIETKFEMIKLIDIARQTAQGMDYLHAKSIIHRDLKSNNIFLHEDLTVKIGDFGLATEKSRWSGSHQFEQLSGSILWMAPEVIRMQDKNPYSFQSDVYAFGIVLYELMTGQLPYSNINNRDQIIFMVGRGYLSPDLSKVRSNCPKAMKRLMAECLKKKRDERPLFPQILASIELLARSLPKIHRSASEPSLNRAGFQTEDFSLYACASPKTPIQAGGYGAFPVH
Sequence of BRAF (P15056 whole entry): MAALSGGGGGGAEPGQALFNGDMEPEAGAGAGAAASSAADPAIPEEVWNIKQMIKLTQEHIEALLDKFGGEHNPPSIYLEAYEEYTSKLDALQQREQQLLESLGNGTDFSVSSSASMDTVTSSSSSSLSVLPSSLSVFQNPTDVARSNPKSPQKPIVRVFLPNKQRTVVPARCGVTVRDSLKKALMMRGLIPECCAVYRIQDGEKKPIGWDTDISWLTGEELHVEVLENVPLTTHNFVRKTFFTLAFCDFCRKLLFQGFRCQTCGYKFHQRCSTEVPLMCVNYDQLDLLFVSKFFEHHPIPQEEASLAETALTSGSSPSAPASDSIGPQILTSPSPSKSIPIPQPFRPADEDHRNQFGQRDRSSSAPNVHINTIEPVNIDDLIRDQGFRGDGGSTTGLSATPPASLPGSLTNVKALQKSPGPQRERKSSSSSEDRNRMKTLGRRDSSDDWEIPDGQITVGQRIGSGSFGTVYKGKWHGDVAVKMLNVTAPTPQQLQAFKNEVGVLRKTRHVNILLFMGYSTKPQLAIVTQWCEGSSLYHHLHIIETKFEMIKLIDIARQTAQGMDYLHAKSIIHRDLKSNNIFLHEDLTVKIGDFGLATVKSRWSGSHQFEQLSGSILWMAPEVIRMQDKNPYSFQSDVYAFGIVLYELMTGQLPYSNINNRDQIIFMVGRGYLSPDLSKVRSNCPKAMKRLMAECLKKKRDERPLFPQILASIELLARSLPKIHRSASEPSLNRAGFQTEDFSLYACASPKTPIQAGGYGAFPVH

Compound `CC(=O)N[C@@H]1CC[C@@H](Nc2ncc3cc(-c4c(F)ccc(NS(=O)(=O)N5CC[C@@H](F)C5)c4F)c(=O)n(C)c3n2)C1` (racemic) [Example 23, N-[(1R,3R)-3-[[6-[2,6-difluoro-3-[[(3R)-3-fluoropyrrolidin-1-yl]sulfonylamino]phenyl]-8-methyl-7-oxopyrido[2,3-d]pyrimidin-2-yl]amino]cyclopentyl]acetamide AND N-[(1S,3S)-3-[[6-[2,6-difluoro-3-[[(3R)-3-fluoropyrrolidin-1-yl]sulfonylamino]phenyl]-8-methyl-7-oxopyrido[2,3-d]pyrimidin-2-yl]amino]cyclopentyl]acetamide] gave a pKd in assay [1] of 7.68. For the same compound, the negative-log IC50 (pIC50) in assay [2] is 7.16. This compound had a pKd in assay [3] of 8.12. In addition, in assay [4], the pEC50 was 5.39 and the “Fold Selectivity HCT-116 EC50-50/ A375” value was 59.4.
Regarding `Cn1c(=O)c(-c2c(F)ccc(NS(=O)(=O)N3CC[C@@H](F)C3)c2F)cc2cnc(NCCc3ccc(CC(=O)OC(C)(C)C)cc3)nc21` [Example 46, tert-butyl 2-[4-[2-[[6-[2,6-difluoro-3-[[(3R)-3-fluoropyrrolidin-1-yl]sulfonylamino]phenyl]-8-methyl-7-oxopyrido[2,3-d]pyrimidin-2-yl]amino]ethyl]phenyl]acetate], the negative-log Kd (pKd) in assay [1] is 6.65. Moreover, the pIC50 in assay [2] was 7.19. In assay [3], this compound had a pKd of 7.01. In assay [4], the pEC50 was 5.45 and the “Fold Selectivity HCT-116 EC50-50/ A375” value was determined as 55.0.
`Cl.Cn1c(=O)c(-c2c(F)ccc(NS(=O)(=O)N3CC[C@@H](F)C3)c2F)cc2cnc(NCCOCCN)nc21` [Example 15, (3R)-N-[3-[2-[2-(2-aminoethoxy)ethylamino]-8-methyl-7-oxopyrido[2,3-d]pyrimidin-6-yl]-2,4-difluorophenyl]-3-fluoropyrrolidine-1-sulfonamide hydrochloride] gave a pKd in assay [1] of 6.71. The negative-log IC50 (pIC50) in assay [2] is 6.21. In addition, the pKd in assay [3] is 7.09. In assay [4], the pEC50 is at most 5.00 and the “Fold Selectivity HCT-116 EC50-50/ A375” value was 16.2.
`CCN(C)S(=O)(=O)Nc1ccc(F)c(-c2cc3cnc(NCC4CC4)nc3n(C)c2=O)c1F` [Example 11, 2-(cyclopropylmethylamino)-6-[3-[[ethyl(methyl)sulfamoyl]amino]-2,6-difluorophenyl]-8-methyl-7-oxopyrido[2,3-d]pyrimidine] showed a pKd in assay [1] of 6.36. Besides, in assay [2], the pIC50 was 7.15. Further, the negative-log Kd (pKd) in assay [3] is 6.80. Moreover, in assay [4], the negative logarithm of the EC50 (pEC50) was at most 5.00 and the “Fold Selectivity HCT-116 EC50-50/ A375” value is listed as over 140.9.
The like results for `Cn1c(=O)c(-c2c(F)ccc(NS(=O)(=O)N3CC[C@@H](F)C3)c2F)cc2cnc(NCCc3cnc(CC(=O)OC(C)(C)C)nc3)nc21` [Example 48, tert-butyl 2-[5-[2-[[6-[2,6-difluoro-3-[[(3R)-3-fluoropyrrolidin-1-yl]sulfonylamino]phenyl]-8-methyl-7-oxopyrido[2,3-d]pyrimidin-2-yl]amino]ethyl]pyrimidin-2-yl]acetate] were, in that order, 7.25, 6.76, 7.58, 5.23 and 33.7.
The matching figures for `Cn1c(=O)c(-c2c(F)ccc(NS(=O)(=O)N3CC[C@@H](F)C3)c2F)cc2cnc(NC3CCCC3)nc21` [Example 7, (3R)-N-[3-[2-(cyclopentylamino)-8-methyl-7-oxopyrido[2,3-d]pyrimidin-6-yl]-2,4-difluorophenyl]-3-fluoropyrrolidine-1-sulfonamide]: 6.55, 7.51, 7.04, 5.66 and 70.5.
For `CC(=O)N1CC(Nc2ncc3cc(-c4c(F)ccc(NS(=O)(=O)N5CC[C@@H](F)C5)c4F)c(=O)n(C)c3n2)C1` [Example 22, (3R)-N-[3-[2-[(1-acetylazetidin-3-yl)amino]-8-methyl-7-oxopyrido[2,3-d]pyrimidin-6-yl]-2,4-difluorophenyl]-3-fluoropyrrolidine-1-sulfonamide], the pKd is 7.68 in assay [1] and 8.15 in assay [3]. For the same compound, the pIC50 in assay [2] is 6.74. The pEC50 in assay [4] is at most 5.00. In addition, the “Fold Selectivity HCT-116 EC50-50/ A375” value in assay [4] is reported as over 54.4.
The like results for `Cn1c(=O)c(-c2c(F)ccc(NS(=O)(=O)N3CC[C@@H](F)C3)c2F)cc2cnc(NCCOc3ccccc3)nc21` [Example 6, (3R)-N-[2,4-difluoro-3-[8-methyl-7-oxo-2-(2-phenoxyethylamino)pyrido[2,3-d]pyrimidin-6-yl]phenyl]-3-fluoropyrrolidine-1-sulfonamide] were, in that order, 6.92, 7.45, 7.87, 6.15 and 52.9.
Take `CC(=O)N1CCN(CCNc2ncc3cc(-c4c(F)ccc(NS(=O)(=O)N5CC[C@@H](F)C5)c4F)c(=O)n(C)c3n2)CC1` [Example 31, (3R)-N-[3-[2-[2-(4-acetylpiperazin-1-yl)ethylamino]-8-methyl-7-oxopyrido[2,3-d]pyrimidin-6-yl]-2,4-difluorophenyl]-3-fluoropyrrolidine-1-sulfonamide]: the pKd in assay [1] is 7.28. For the same compound, in assay [2], the pIC50 was 7.10. This compound had a negative-log Kd (pKd) in assay [3] of 7.68. For the same compound, in assay [4], the negative-log EC50 (pEC50) is 5.19 and the “Fold Selectivity HCT-116 EC50-50/ A375” value came out at 80.2.
The matching figures for `CC(=O)N1CCc2ccc(CCNc3ncc4cc(-c5c(F)ccc(NS(=O)(=O)N6CC[C@@H](F)C6)c5F)c(=O)n(C)c4n3)cc2C1` [Example 50, (3R)-N-[3-[2-[2-(2-acetyl-3,4-dihydro-1H-isoquinolin-7-yl)ethylamino]-8-methyl-7-oxopyrido[2,3-d]pyrimidin-6-yl]-2,4-difluorophenyl]-3-fluoropyrrolidine-1-sulfonamide]: 7.86, 7.82, 8.35, 5.81 and 103.6.
In the case of `COC(=O)Cc1cccc(CCNc2ncc3cc(-c4c(F)ccc(NS(=O)(=O)N5CC[C@@H](F)C5)c4F)c(=O)n(C)c3n2)c1` [Example 47, methyl 2-[3-[2-[[6-[2,6-difluoro-3-[[(3R)-3-fluoropyrrolidin-1-yl]sulfonylamino]phenyl]-8-methyl-7-oxopyrido[2,3-d]pyrimidin-2-yl]amino]ethyl]phenyl]acetate], in assay [1], the pKd is 7.63. Besides, the pIC50 in assay [2] was 7.41. The compound also had a negative logarithm of the Kd (pKd) in assay [3] of 8.04. In assay [4], the pEC50 was 5.35 and the “Fold Selectivity HCT-116 EC50-50/ A375” value stood at 116.0.

The pKd is the Kd on a negative log10 scale, so that one unit is a factor of ten. Lower therefore signals a high Kd. By pIC50 is commonly meant −log10 of the IC50, conventionally taken in molar units. A word on the pEC50: it is −log10 of the EC50, conventionally taken in molar units.
